In the NIST ThermoML archive (doi:10.1016/j.jct.2005.10.018):
Numbers after ± are expanded uncertainties.

Details: 298.15 K; 101.33 kPa; Liquid; Vibrating tube method

Row | mass density [kg/m3] | SMILES
1 | 837.31 ± 0.85 | C=C(C)[C@H]1CC=C(C)CC1 [(R)-1-methyl-4-(1-methylethenyl)cyclohexene]
2 | 866.84 ± 0.3 | C=C1CC[C@H]2C[C@@H]1C2(C)C [(1S,5S)-6,6-dimethyl-2-methylenebicyclo[3.1.1]heptane]
3 | 785.24 ± 0.16 | CCO [ethanol]
4 | 853.88 ± 0.3 | CC1=CC[C@H]2C[C@@H]1C2(C)C [(S)-2-pinene]
